# Results: patent US8552032B2, “Bicyclic derivatives useful as inhibitors of DPP-1” (Janssen Pharmaceutica NV, priority 2009, dated 2013)
# pIC50: −log10 of the molar value.
# Molecular target: T1, recombinant human DPP-1 (Cathepsin C) (Homo sapiens, UniProt P53634)
# T1 construct: made in house
# Assay: DPP-1 Inhibition Assay (in vitro), fluorogenic substrate GR-AMC
# Type: biochemical
# Details: 0.15 nM DPP-1, 10 uM GR-AMC, pH 7.0, room temperature; average value where tested multiple times
# Experimental: Test compounds were assessed for DPP-1 (Cathepsin C) inhibitory activity using a fluorogenic substrate, GR-AMC (Glycine-Arginine-amino-4-methylcoumarin, Bachem, 1-1215). The amount of amino-methylcoumarin released is proportional to the DPP-1 activity, and the reaction is monitored kinetically with a Molecular Devices plate reader using black 96-well plates.
# All compounds were tested under room temperature conditions. The assay buffer consisted of 50 mM HEPES, pH 7.0, 100 mM NaCl, 2 mM glutathione (GSH), and 0.002% TWEEN 20. GSH and TWEEN 20 were added to the buffer fresh daily. Just prior to use, an in-house preparation of recombinant human DPP-1 (240 μM stock, MW 49.6 kD) was diluted 600-fold in assay buffer containing fresh 2 mM dithiothreitol (DTT) to activate the enzyme, then diluted into assay buffer (without DTT) 133-fold for a DPP-1 working solution of 3 nM. Test compounds were diluted in DMSO for 20× their final assay concentrations.
# Additions to a 96-well black Costar 3915 plates were as follows: 90 μL of 11 μM GR-AMC, 5 μL test compound (followed by mixing), and 5 μL 3 nM DPP1 to start the reaction. Fluorescent reactions were monitored kinetically at 360 nm excitation, 440 nm emission on a Molecular Devices Spectramax XPS reader. The Softmax Pro software of the reader determined the initial velocity of the selected data (the first 3-5 minutes of the reaction), and the best linear regression fit of the initial kinetic data. Final assay conditions were 0.15 nM DPP-1, 10 uM GR-AMC, 50 mM HEPES, pH 7.0, 100 mM NaCl, 2 mM GSH, 0.002% TWEEN 20, 1 uM DTT, 5.0% DMSO. Initial velocity rates were plotted vs. test compound concentration by use of a four-parameter logistics equation (nonlinear regression, sigmoidal dose-response (variable slope), with fixed Hill (1.0) using GraphPad Prism® software for determination of DPP-1 IC50. Within-run assay coefficient of variation (CV) was generally <10%; between-run CV <20%.
# Representative compounds of the present invention were tested according to the procedure as described above, with results as listed in Table 12, below.
# T1 sequence (P53634 25-463): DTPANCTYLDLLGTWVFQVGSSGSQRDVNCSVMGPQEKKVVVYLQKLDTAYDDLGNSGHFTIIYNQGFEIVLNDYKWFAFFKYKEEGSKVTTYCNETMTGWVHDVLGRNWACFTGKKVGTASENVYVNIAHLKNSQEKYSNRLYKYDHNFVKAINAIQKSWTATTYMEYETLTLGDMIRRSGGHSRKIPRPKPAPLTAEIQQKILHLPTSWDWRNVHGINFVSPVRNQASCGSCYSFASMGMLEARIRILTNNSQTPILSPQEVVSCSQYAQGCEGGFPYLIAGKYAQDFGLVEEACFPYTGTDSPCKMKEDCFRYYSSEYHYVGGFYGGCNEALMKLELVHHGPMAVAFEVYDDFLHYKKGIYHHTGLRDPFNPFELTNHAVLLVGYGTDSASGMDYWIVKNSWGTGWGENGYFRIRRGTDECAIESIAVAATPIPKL
row,Compound,pIC50
1,"CC[C@H](N)C(=O)NCCCc1cc2cc(C(=O)Nc3ccc(OC)c(OC)c3)ccc2[nH]1 (single isomer, unassigned) [Compound 110]",< 5.00
2,N[C@@H](Cc1cccs1)C(=O)N1CCC(c2cc3ccccc3o2)CC1 [Compound 1],5.92
3,"COc1ccc(-c2ccc3[nH]c(C4CCN(C(=O)[C@@H](N)Cc5cccs5)CC4)cc3c2)cc1OC [Compound 2, (S)-2-amino-1-(4-(5-(3,4-dimethoxyphenyl)-1H-indol-2-yl)piperidin-1-yl)-3-(thiophen-2-yl)propan-1-one]",7.03
4,N[C@@H](Cc1cccs1)C(=O)N1CCC(c2cc3cc(-c4ccc5c(c4)OCCO5)ccc3[nH]2)CC1 [Compound 3],6.57
5,COc1ccc(-c2ccc3[nH]c(C4CCN(C(=O)[C@@H](N)Cc5cccs5)CC4)cc3c2)cc1 [Compound 4],6.48
6,NC(=O)c1cccc(-c2ccc3[nH]c(C4CCN(C(=O)[C@@H](N)Cc5cccs5)CC4)cc3c2)c1 [Compound 5],6.52
7,N[C@@H](Cc1cccs1)C(=O)N1CCC(c2cc3cc(-c4ccc5c(c4)OCO5)ccc3[nH]2)CC1 [Compound 6],6.59
8,COc1ccc(NC(=O)c2ccc3[nH]c(C4CCN(C(=O)[C@@H](N)Cc5cccs5)CC4)cc3c2)cc1OC [Compound 7],6.85
9,NC(=O)c1cccc(-c2ccc3[nH]c(C4CCN(C(=O)[C@@H](N)Cc5nccs5)CC4)cc3c2)c1 [Compound 8],6.34
10,CC[C@H](N)C(=O)N1CCC(c2cc3cc(-c4ccc(OC)c(OC)c4)ccc3[nH]2)CC1 [Compound 9],5.43
11,COc1ccc(-c2ccc3[nH]c(C4CCN(C(=O)[C@@H](N)Cn5cccn5)CC4)cc3c2)cc1OC [Compound 11],~4.92
12,COc1ccc(-c2ccc3[nH]c(C4CCN(C(=O)[C@@H](N)CC5CCC5)CC4)cc3c2)cc1OC [Compound 12],4.85
13,COc1ccc(-c2ccc3[nH]c(C4CCN(C(=O)[C@@H](N)Cc5ccco5)CC4)cc3c2)cc1OC [Compound 13],6.07
14,COc1ccc(-c2ccc3[nH]c(C4CCN(C(=O)[C@@H](N)Cc5cn(C)cn5)CC4)cc3c2)cc1OC [Compound 14],5.47
15,COc1ccc(-c2ccc3[nH]c(C4CCN(C(=O)[C@@H](N)Cc5ccsc5)CC4)cc3c2)cc1OC [Compound 15],5.66
16,"COc1ccc(-c2ccc3[nH]c(C4CCN(C(=O)[C@@H](N)Cc5cccs5)CC4)nc3c2)cc1OC [Compound 18, (S)-2-amino-1-(4-(5-(3,4-dimethoxyphenyl)-1H-benzo[d]imidazol-2-yl)piperidin-1-yl)-3-(thiophen-2-yl)propan-1-one]",6.68
17,NC(=O)c1cccc(-c2ccc3[nH]c(C4CCN(C(=O)[C@@H](N)Cc5cccs5)CC4)nc3c2)c1 [Compound 19],6.62
18,N#Cc1cccc(-c2ccc3[nH]c(C4CCN(C(=O)[C@@H](N)Cc5cccs5)CC4)cc3c2)c1 [Compound 20],6.70
19,N[C@@H](Cc1cccs1)C(=O)N1CCC(c2cc3cc(-c4cccc(C(=O)O)c4)ccc3[nH]2)CC1 [Compound 21],6.27
20,COc1ccc(-c2ccc3[nH]c(C4CCN(C(=O)[C@@H](N)Cc5nc(C)cs5)CC4)cc3c2)cc1OC [Compound 22],4.74

row,Compound,pIC50
1,N[C@@H](Cc1cccs1)C(=O)N1CCC(c2cc3cc(-c4cccnc4)ccc3[nH]2)CC1 [Compound 23],6.96
2,COc1ccc(-c2ccc3[nH]c(C4CCN(C(=O)[C@@H](N)Cc5ccc(Cl)s5)CC4)cc3c2)cc1OC [Compound 24],5.24
3,COc1ccc(-c2ccc3[nH]c(C4CCN(C(=O)[C@@H](N)Cc5cccs5)CC4)cc3c2)cn1 [Compound 25],6.60
4,N[C@@H](Cc1cccs1)C(=O)N1CCC(c2cc3cc(-c4ccncc4)ccc3[nH]2)CC1 [Compound 26],6.64
5,N[C@@H](Cc1cccs1)C(=O)N1CCC(c2cc3cc(-c4ccc(C(=O)O)cc4)ccc3[nH]2)CC1 [Compound 27],6.23
6,COc1ccc(-c2ccc3[nH]c(C4CCN(C(=O)C(N)c5cccs5)CC4)cc3c2)cc1OC (stereo not drawn) [Compound 28],< 4.70
7,COc1ccc(-c2ccc3[nH]c(C4CCN(C(=O)C(N)c5ccco5)CC4)cc3c2)cc1OC (stereo not drawn) [Compound 29],< 4.70
8,COc1ccc(-c2ccc3[nH]c(C4CCN(C(=O)C(N)c5ccsc5)CC4)cc3c2)cc1OC (stereo not drawn) [Compound 30],< 4.70
9,N[C@@H](Cc1cccs1)C(=O)NCCc1cc2ccccc2o1 [Compound 35],5.89
10,CC[C@H](N)C(=O)NCCc1cc2cc(C(=O)Nc3ccc(OC)c(OC)c3)ccc2[nH]1 [Compound 36],< 5.00
11,"N[C@@H](Cc1cccs1)C(=O)NCCc1nc2ccccc2[nH]1 [Compound 37, (S)—N-(2-(1H-benzo[d]imidazol-2-yl)ethyl)-2-amino-3-(thiophen-2-yl)propanamide]",5.37
12,CC[C@H](N)C(=O)NCCc1nc2ccccc2[nH]1 [Compound 38],5.19
13,CC[C@H](N)C(=O)NCCc1nc2ccccc2n1C [Compound 39],4.37
14,"CC[C@H](N)C(=O)NCCCc1cc2ccccc2[nH]1 [Compound 40, (S)—N-(3-(1H-indol-2-yl)propyl)-2-aminobutanamide]",5.54
15,"CC[C@H](N)C(=O)NCCCc1cc2ccccc2n1C [Compound 41, (S)-2-amino-N-(3-(1-methyl-1H-indol-2-yl)propyl)butanamide]",5.20
16,CC[C@H](N)C(=O)NCCCc1cc2ccccc2o1 [Compound 42],5.48
17,CC[C@H](N)C(=O)NCCCc1csc2ccccc12 [Compound 43],4.85
18,CC[C@H](N)C(=O)NCCCc1cc2cc(-c3ccccc3)ccc2o1 [Compound 45],5.02
19,CC[C@H](N)C(=O)NCCCc1cc2ccc(C(=O)N(CC)CC)cc2o1 [Compound 46],4.38
20,"CC[C@H](NC(=O)OC(C)(C)C)C(=O)NCCCc1cc2cc(C(=O)O)ccc2[nH]1 [Compound 47, (S)-2-(3-(2-(tert-butoxycarbonylamino)butanamido)propyl)-1H-indole-5-carboxylic acid]",4.28

row,Compound,pIC50
1,CC[C@H](N)C(=O)NCCCc1cc2cc(C(=O)Nc3nc[nH]n3)ccc2[nH]1 [Compound 48],5.20
2,CC[C@H](N)C(=O)NCCCc1cc2cc([N+](=O)[O-])ccc2o1 [Compound 49],4.72
3,"CC[C@H](N)C(=O)NCCCc1cc2cc(C(=O)Nc3ccc(OC)c(OC)c3)ccc2[nH]1 [Compound 50, (S)-2-(3-(2-aminobutanamido)propyl)-N-(3,4-dimethoxyphenyl)-1H-indole-5-carboxamide]",6.62
4,CC[C@H](N)C(=O)NCCCc1cc2cc(C(=O)Nc3ccccc3)ccc2o1 [Compound 51],5.39
5,CC[C@H](N)C(=O)NCCCc1cc2cc(C(=O)Nc3cccnc3)ccc2o1 [Compound 52],5.40
6,CC[C@H](N)C(=O)NCCCc1cc2cc(C(=O)NCc3ccccc3)ccc2o1 [Compound 53],5.13
7,CC[C@H](N)C(=O)NCCCc1cc2cc(C(=O)Nc3cccc4ccccc34)ccc2o1 [Compound 54],6.07
8,CC[C@H](N)C(=O)NCCCc1cc2cc(C(=O)Nc3cccc4ncccc34)ccc2o1 [Compound 55],6.66
9,N[C@@H](Cc1cccs1)C(=O)NCCCc1cc2ccccc2o1 [Compound 56],5.96
10,CC[C@H](N)C(=O)NCCCc1cc2cc(C(=O)Nc3ccc4ncsc4c3)ccc2o1 [Compound 57],6.15
11,CC[C@H](N)C(=O)NCCCc1cc2cc(C(=O)Nc3ccc(OC)c(OC)c3)ccc2o1 [Compound 58],6.14
12,CC[C@H](N)C(=O)NCCCc1cc2cc(C(=O)Nc3cccc4c3ncn4C)ccc2o1 [Compound 59],5.85
13,CC[C@H](N)C(=O)NCCCc1cc2cc(C(=O)Nc3cc[nH]n3)ccc2[nH]1 [Compound 61],5.37
14,CC[C@H](N)C(=O)NCCCc1cc2cc(C(=O)Nc3cc(-c4ccccc4)[nH]n3)ccc2[nH]1 [Compound 62],5.55
15,CC[C@H](N)C(=O)NCCCc1cc2cc(C(=O)Nc3ncnc4[nH]ncc34)ccc2[nH]1 [Compound 63],5.60
16,CC[C@H](N)C(=O)NCCCc1cc2cc(C(=O)Nc3cnc4ccccc4c3)ccc2o1 [Compound 64],6.46
17,CC[C@H](N)C(=O)NCCCc1cc2cc(C(=O)Nc3cccc4cnccc34)ccc2o1 [Compound 65],6.32
18,CC[C@H](N)C(=O)NCCCc1cc2cc(C(=O)Nc3cccc4cccnc34)ccc2o1 [Compound 66],6.04
19,CC[C@H](N)C(=O)NCCCc1cc2cc(C(=O)Nc3ccc4ncccc4c3)ccc2o1 [Compound 67],6.70
20,CC[C@H](N)C(=O)NCCCc1cc2cc(C(=O)Nc3cccc4ccncc34)ccc2o1 [Compound 68],6.15
